Molecular target: T1, human OX2 receptor (Homo sapiens, UniProt O43614)
T1 construct: expressed in transfected cells
T1 sequence (O43614 1-444): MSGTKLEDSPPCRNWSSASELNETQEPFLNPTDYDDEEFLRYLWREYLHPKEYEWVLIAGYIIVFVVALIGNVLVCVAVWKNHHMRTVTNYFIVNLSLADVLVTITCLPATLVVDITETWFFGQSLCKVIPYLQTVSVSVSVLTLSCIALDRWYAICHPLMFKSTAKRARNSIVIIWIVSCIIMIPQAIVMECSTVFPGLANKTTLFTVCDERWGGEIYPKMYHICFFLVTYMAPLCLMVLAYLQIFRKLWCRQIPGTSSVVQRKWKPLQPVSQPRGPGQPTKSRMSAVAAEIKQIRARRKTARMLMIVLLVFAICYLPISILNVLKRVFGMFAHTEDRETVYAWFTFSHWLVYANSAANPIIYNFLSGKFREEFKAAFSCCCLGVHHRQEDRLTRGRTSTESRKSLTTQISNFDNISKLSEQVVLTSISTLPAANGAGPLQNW
Test: Measurement of orexin type 2 receptor agonist activity (calcium fluorescence, Fluo-4, FDSS)
Assay type: cell-based
Conditions: 3 uM test compound; CHO cells expressing human OX2 receptor; DMSO = 0%, 10 nM orexin A (human) = 100%
Procedure: In order to obtain cell clones that stably express human orexin type 2 receptor, human orexin type 2 (residues 1-444, NCBI Reference Sequence: AK314279) was constructed in a pcDNA3.1 (+) vector (Invitrogen) to express in mammalian cells. This plasmid DNA was transfected into CHO-K1 cells by electroporation, and stable clones were obtained by limiting dilution using resistance to G418 as a selection marker.
CHO cells in which human OX2 receptor was forcibly expressed were seeded at 10,000 cells/well into a 384-well black transparent bottom plate (BD falcon), and were incubated at 37° C., 5% CO2 for 1 day after incubation at room temperature for 30 minutes. After removing the cell plate medium, assay buffer containing calcium indicator A (HBSS (Thermo Fisher Scientific), 20 mM HEPES (Thermo Fisher Scientific), 0.1% BSA (Sigma-Aldrich), 2.5 μg/mL Fluo-4 AM (Dojin Kagaku), 0.08% Pluronic F127 (Dojin Kagaku), 1.25 mM probenecid (Dojin Kagaku)) was added at 30 μL/well. After incubation in a 5% CO2 incubator at 37° C. for 30 minutes, it was incubated at room temperature for another 30 minutes. Add 10 μL/well of the test compound diluted with assay buffer B (HBSS, 20 mM HEPES, 0.1% BSA), and use FDSS μCELL (Hamamatsu Photonics) to measure the fluorescence value every 1 second for 1 minute, and then every 2 seconds for 1 minute. It was measured for 1 minute and 40 seconds. The amount of fluorescence value when DMSO is added instead of the test compound is defined as 0%, and the amount of fluorescence value when orexin A (human) (Peptide Institute) with a final concentration of 10 nM is added is defined as 100%. The activity (%) of the test compound was calculated.

Compared with CCS(=O)(=O)N[C@@H]1CN2C(=O)N(c3noc4cccc(-c5c(F)cccc5F)c34)C[C@@H]2[C@@H]1F (relative stereo) [Example 4, rel-N-{(6R,7S,7aR)-2-[4-(2,6-difluorophenyl)-1,2-benzoxazol-3-yl]-7-fluoro-3-oxohexahydro-1H-pyrrolo[1,2-c]imidazol-6-yl}ethanesulfonamide], CCS(=O)(=O)N[C@@H]1Cn2c(cn(-c3noc4cccc(-c5c(F)cccc5F)c34)c2=O)[C@@H]1F (relative stereo) [Example 129, rel-N-{(6R, 7R)-2-[4-(2,6-difluorophenyl)-1,2-benzoxazol-3-yl]-7-fluoro-3-oxo-2,5,6,7-tetrahydro-3H-pyrrolo[1,2-c]imidazol-6-yl}ethanesulfonamide] is lower in “OX2R agonist activity (3 uM, %)” value: 105% for the first, 103% for the second.

Going from CS(=O)(=O)N[C@@H]1CC[C@H]2CN(c3noc4cccc(-c5c(F)cccc5F)c34)C(=O)N2C1 (relative stereo) [Example 63, rel-N-{(6R, 8aS)-2-[4-(2,6-difluorophenyl)-1,2-benzoxazol-3-yl]-3-oxooctahydroimidazo[1,5-a]pyridin-6-yl}methanesulfonamide] to CS(=O)(=O)N[C@@H]1CN2C(=O)N(c3noc4cccc(-c5c(F)cccc5F)c34)C[C@H]2CC1(F)F (relative stereo) [Example 216, rel-N-{(6R,8aR)-2-[4-(2,6-difluorophenyl)-1,2-benzoxazol-3-yl]-7,7-difluoro-3-oxooctahydroimidazo[1,5-a]pyridin-6-yl}methanesulfonamide], the “OX2R agonist activity (3 uM, %)” value falls from 107% to 101%.

First: CCS(=O)(=O)N[C@H]1Cn2c(cn(-c3noc4cccc(-c5c(F)cccc5F)c34)c2=O)[C@H]1C (relative stereo) [Example 109, rel-N-{(6R,7S)-2-[4-(2,6-difluorophenyl)-1,2-benzoxazol-3-yl]-7-methyl-3-oxo-2,5,6,7-tetrahydro-3H-pyrrolo[1,2-c]imidazol-6-yl}ethanesulfonamide]
Second: CCS(=O)(=O)N[C@H]1Cn2c(cn(-c3noc4cccc(-c5c(F)cccc5F)c34)c2=O)[C@@H]1C (relative stereo) [Example 131, rel-N-{(6R, 7R)-2-[4-(2,6-difluorophenyl)-1,2-benzoxazol-3-yl]-7-methyl-3-oxo-2,5,6,7-tetrahydro-3H-pyrrolo[1,2-c]imidazol-6-yl}ethanesulfonamide]
The “OX2R agonist activity (3 uM, %)” value of the first is higher: 103% for the first, 96% for the second.

Going from CS(=O)(=O)N[C@@H]1CN2C(=O)N(c3noc4cccc(-c5c(F)cc(F)cc5F)c34)C(O)[C@@H]2C1(F)F (relative stereo) [Example 125, N-{(1R*,6R,7aR)-7,7-difluoro-1-hydroxy-3-oxo-2-[4-(2,4,6-trifluorophenyl)-1,2-benzoxazol-3-yl]hexahydro-1H-pyrrolo[1,2-c]imidazol-6-yl}methanesulfonamide] to CS(=O)(=O)NC1Cn2c(cn(-c3noc4cc(F)cc(-c5c(F)cc(F)cc5F)c34)c2=O)CC1(F)F (single isomer, unassigned) [Example 214, N-{(6R*)-7,7-difluoro-2-[6-fluoro-4-(2,4,6-trifluorophenyl)-1,2-benzoxazol-3-yl]-3-oxo-2,3,5,6,7,8-hexahydroimidazo[1,5-a]pyridin-6-yl}methanesulfonamide], the “OX2R agonist activity (3 uM, %)” value rises from 103% to 106%.

Going from CS(=O)(=O)N[C@@H]1C[C@H]2CN(c3noc4cccc(-c5c(F)cccc5F)c34)C(=O)[C@H]2C1 (relative stereo) [Example 337, rel-N-{(3aR,5R,6aS)-2-[4-(2,6-difluorophenyl)-1,2-benzoxazol-3-yl]-1-oxooctahydrocyclopenta[c]pyrrol-5-yl}methanesulfonamide] to CS(=O)(=O)N[C@H]1C[C@H]2CN(c3noc4cccc(-c5c(F)cccc5F)c34)C(=O)[C@H]2C1 (relative stereo) [Example 338, rel-N-{(3aR,5S,6aS)-2-[4-(2,6-difluorophenyl)-1,2-benzoxazol-3-yl]-1-oxooctahydrocyclopenta[c]pyrrol-5-yl}methanesulfonamide], the “OX2R agonist activity (3 uM, %)” value rises from 79% to 100%.

Compared with CCS(=O)(=O)NC1Cn2c(cn(-c3noc4cccc(-c5c(F)cccc5F)c34)c2=O)C1(F)F (single isomer, unassigned) [Example 5, N-{(6R*)-2-[4-(2,6-difluorophenyl)-1,2-benzoxazol-3-yl]-7,7-difluoro-3-oxo-2,5,6,7-tetrahydro-3H-pyrrolo[1,2-c]imidazol-6-yl}ethanesulfonamide], CCS(=O)(=O)NC1Cn2c(cn(-c3noc4cccc(-c5c(F)cccc5F)c34)c2=O)CC1(F)F (single isomer, unassigned) [Example 181, N-{(6R*)-2-[4-(2,6-difluorophenyl)-1,2-benzoxazol-3-yl]-7,7-difluoro-3-oxo-2,3,5,6,7,8-hexahydroimidazo[1,5-a]pyridin-6-yl}ethanesulfonamide] is lower in “OX2R agonist activity (3 uM, %)” value: 106% for the first, 105% for the second.

Compared with CS(=O)(=O)NC1Cn2c(cn(-c3noc4cccc(-c5c(F)cccc5F)c34)c2=O)CC1(F)F (single isomer, unassigned) [Example 117, N-{(6R*)-2-[4-(2,6-difluorophenyl)-1,2-benzoxazol-3-yl]-7,7-difluoro-3-oxo-2,3,5,6,7,8-hexahydroimidazo[1,5-a]pyridin-6-yl}methanesulfonamide], CS(=O)(=O)NC1Cn2c(cn(-c3noc4ccc(F)c(-c5c(F)cc(F)cc5F)c34)c2=O)CC1(F)F (single isomer, unassigned) [Example 231, N-{(6R*)-7,7-difluoro-2-[5-fluoro-4-(2,4,6-trifluorophenyl)-1,2-benzoxazol-3-yl]-3-oxo-2,3,5,6,7,8-hexahydroimidazo[1,5-a]pyridin-6-yl}methanesulfonamide] is higher in “OX2R agonist activity (3 uM, %)” value: 97% for the first, 103% for the second.

First: CCS(=O)(=O)NC1Cn2c(cn(-c3noc4cc(F)cc(-c5c(F)cc(F)cc5F)c34)c2=O)CC1(F)F (single isomer, unassigned) [Example 240, N-{(6R*)-7,7-difluoro-2-[6-fluoro-4-(2,4,6-trifluorophenyl)-1,2-benzoxazol-3-yl]-3-oxo-2,3,5,6,7,8-hexahydroimidazo[1,5-a]pyridin-6-yl}ethanesulfonamide]
Second: CCS(=O)(=O)NC1Cn2c(cn(-c3noc4ccc(F)c(-c5c(F)cc(F)cc5F)c34)c2=O)CC1(F)F (single isomer, unassigned) [Example 246, N-{(6R*)-7,7-difluoro-2-[5-fluoro-4-(2,4,6-trifluorophenyl)-1,2-benzoxazol-3-yl]-3-oxo-2,3,5,6,7,8-hexahydroimidazo[1,5-a]pyridin-6-yl}ethanesulfonamide]
The “OX2R agonist activity (3 uM, %)” value of the first is lower: 106% for the first, 107% for the second.

Cc1cc(-c2c(F)cc(F)cc2F)c2c(-n3cc4n(c3=O)CC(NS(C)(=O)=O)C(F)(F)C4)noc2n1 (single isomer, unassigned) [Example 245, N-{(6R*)-7,7-difluoro-2-[6-methyl-4-(2,4,6-trifluorophenyl)[1,2]oxazolo[5,4-b]pyridin-3-yl]-3-oxo-2,3,5,6,7,8-hexahydroimidazo[1,5-a]pyridin-6-yl}methanesulfonamide] was tested, and the “OX2R agonist activity (3 uM, %)” value was 108%.

Source: US11987586B1 (TAKEDA PHARMACEUTICAL COMPANY LIMITED, priority 2022, dated 2024)
